Source: ChEMBL document CHEMBL4038315, “Identification of Peptidic Antagonists of Vascular Endothelial Growth Factor Receptor 1 by Scanning the Binding Epitopes of Its Ligands” (J Med Chem, 2017)
Activity calls are given as the source filed them. The rule behind the calls is not given here. Positions of bridges follow the written chain, without caps; N, C: chain ends. Residues, ends and D or L forms follow the SMILES beside them.

Each compound was assayed on HUVEC. Conditions: Homo sapiens, 50 uM.
Description: Antiangiogenic activity in HUVEC assessed as inhibition of VEGF-A-induced tube formation at 50 uM preincubated for 15 mins prior to VEGF-A addition measured after 4 hrs by matrigel assay
`CSCC[C@@H]1NC(=O)[C@H](CC(C)C)NC(=O)[C@H](CCC(=O)O)NC(=O)[C@H](C(C)C)NC(=O)[C@H]([C@@H](C)O)NC(=O)[C@@H](NC(C)=O)CSSC[C@@H](C(N)=O)NC(=O)[C@@H]2CCCN2C(=O)[C@H](C(C)C)NC(=O)[C@H](CC(C)C)NC(=O)[C@H](CCC(N)=O)NC(=O)[C@H](CCCCN)NC(=O)[C@H](C)NC(=O)[C@H](C(C)C)NC(=O)[C@H]([C@@H](C)O)NC(=O)CNC1=O` (Ac-CTVELMGTVAKQLVPC-NH2; disulfide 1-16) was tested, and the inhibition was “Active”.
`CC[C@H](C)[C@@H]1NC(=O)[C@H](Cc2ccc(O)cc2)NC(=O)[C@H](CCC(=O)O)NC(=O)[C@H]([C@@H](C)CC)NC(=O)[C@H](CCC(=O)O)NC(=O)[C@H](CC(=O)O)NC(=O)[C@@H]2CCCN2C(=O)[C@H](Cc2ccc(O)cc2)NC(=O)[C@H](CCC(=O)O)NC(=O)[C@H](CCC(N)=O)NC(=O)[C@H](Cc2ccccc2)NC(=O)[C@@H](N)CSSC[C@@H](C(=O)N[C@@H](CCCCN)C(N)=O)NC1=O` (H-CFQEYPDEIEYICK-NH2; disulfide 1-13) was tested, and the inhibition was “Active”.
With `CC[C@H](C)[C@@H]1NC(=O)[C@H](Cc2ccc(O)cc2)NC(=O)[C@H](CCC(=O)O)NC(=O)[C@H]([C@@H](C)CC)NC(=O)[C@H](CCC(=O)O)NC(=O)[C@H](CC(=O)O)NC(=O)[C@@H]2CCCN2C(=O)[C@H](Cc2ccc(O)cc2)NC(=O)[C@H](CCC(=O)O)NC(=O)[C@H](CCC(N)=O)NC(=O)[C@@H](N)CSSC[C@@H](C(=O)N[C@@H](CCCCN)C(N)=O)NC1=O` (H-CQEYPDEIEYICK-NH2; disulfide 1-12) the inhibition was “Active”.
